Read-outs that look alike come from different tables or passages of the source.
What was measured:
Experiment in all cases: biochemical
Format in all cases: biochemical
panel of 391 kinases [1] = target: panel of 391 kinases (Homo sapiens, UniProt P49137); details: MAPKAPK2, MK-28 1 µM, ATP 1 µM
panel of 391 kinases [2] = target: panel of 391 kinases (Homo sapiens, UniProt Q16654); details: kinase PDK4/PDKH4, compound at 1 µM, single dose in duplicates, 1 µM ATP
panel of 391 kinases [3] = target: panel of 391 kinases (Homo sapiens, UniProt Q8IWQ3); details: BRSK2, MK-28 1 µM, ATP 1 µM
panel of 391 kinases [4] = target: panel of 391 kinases (Homo sapiens, UniProt Q9NY57); details: STK32B/YANK2, MK-28 1 µM, ATP 1 µM
panel of 391 kinases [5] = target: panel of 391 kinases (Homo sapiens, UniProt P06213); details: IR, MK-28 1 µM, ATP 1 µM
panel of 391 kinases [6] = target: panel of 391 kinases (Homo sapiens, UniProt P41279); details: COT1/MAP3K8, MK-28 1 µM, ATP 1 µM
panel of 391 kinases [7] = target: panel of 391 kinases (Homo sapiens, UniProt P25098); details: GRK2, MK-28 1 µM, ATP 1 µM
panel of 391 kinases [8] = target: panel of 391 kinases (Homo sapiens, UniProt Q13464); details: ROCK1, MK-28 1 µM, ATP 1 µM
panel of 391 kinases [9] = target: panel of 391 kinases (Homo sapiens, UniProt Q08345); details: DDR1, MK-28 1 µM, ATP 1 µM
panel of 391 kinases [10] = target: panel of 391 kinases (Homo sapiens, UniProt P48730); details: CK1d, MK-28 1 µM, ATP 1 µM
panel of 391 kinases [11] = target: panel of 391 kinases (Homo sapiens, UniProt Q7L7X3); details: TAOK1, MK-28 1 µM, ATP 1 µM
panel of 391 kinases [12] = target: panel of 391 kinases (Homo sapiens, UniProt Q96L34); details: MARK4, MK-28 1 µM, ATP 1 µM
panel of 391 kinases [13] = target: panel of 391 kinases (Homo sapiens, UniProt O14578); details: STK21/CIT, MK-28 1 µM, ATP 1 µM
panel of 391 kinases [14] = target: panel of 391 kinases (Homo sapiens, UniProt Q00535); details: MK-28 1 µM, ATP 1 µM; for remaining activity at 1 µM: read-out: % Enzyme Activity (relative to DMSO controls)
panel of 391 kinases [15] = target: panel of 391 kinases (Homo sapiens, UniProt Q05655); details: PKCd, MK-28 1 µM, ATP 1 µM
panel of 391 kinases [16] = target: panel of 391 kinases (Homo sapiens, UniProt P51956); details: NEK3, MK-28 1 µM, ATP 1 µM
panel of 391 kinases [17] = target: panel of 391 kinases (Homo sapiens, UniProt O14920); details: IKKb/IKBKB, MK-28 1 µM, ATP 1 µM
panel of 391 kinases [18] = target: panel of 391 kinases (Homo sapiens, UniProt Q15208); details: STK38/NDR1, MK-28 1 µM, ATP 1 µM
panel of 391 kinases [19] = target: panel of 391 kinases (Homo sapiens, UniProt P11309); details: PIM1, MK-28 1 µM, ATP 1 µM
panel of 391 kinases [20] = target: panel of 391 kinases (Homo sapiens, UniProt Q16566); details: CAMK4, MK-28 1 µM, ATP 1 µM
panel of 391 kinases [21] = target: panel of 391 kinases (Homo sapiens, UniProt P53350); details: PLK1, MK-28 1 µM, ATP 1 µM
panel of 391 kinases [22] = target: panel of 391 kinases (Homo sapiens, UniProt Q9P1W9); details: PIM2, MK-28 1 µM, ATP 1 µM
panel of 391 kinases [23] = target: panel of 391 kinases (Homo sapiens, UniProt Q9Y3S1); details: WNK2, MK-28 1 µM, ATP 1 µM
panel of 391 kinases [24] = target: panel of 391 kinases (Homo sapiens, UniProt P36888); details: FLT3, MK-28 1 µM, ATP 1 µM
panel of 391 kinases [25] = target: panel of 391 kinases (Homo sapiens, UniProt Q15759); details: P38b/MAPK11, MK-28 1 µM, ATP 1 µM
panel of 391 kinases [26] = target: panel of 391 kinases (Homo sapiens, UniProt Q9P2K8); details: kinase EIF2AK4, compound at 1 µM, single dose in duplicates, 1 µM ATP
[27] = read-out: % Enzyme Activity (relative to DMSO controls)

With CN(/N=C\c1ccc(O)c(O)c1)c1nc(-c2ccccc2)cc(-c2ccccc2)n1 [MK-28] the “% Enzyme Activity (relative to DMSO controls)” value (panel of 391 kinases [1]) was 93.81%, the remaining activity at 1 µM (panel of 391 kinases [1]; [27]) was 94% and the “% Enzyme Activity (relative to DMSO controls)” value (panel of 391 kinases [2]) was 97.96%. The remaining activity at 1 µM (panel of 391 kinases [2]; [27]) was 98.2%, the “% Enzyme Activity (relative to DMSO controls)” value (panel of 391 kinases [3]) was 99.36% and the remaining activity at 1 µM (panel of 391 kinases [3]; [27]) was 101%. The “% Enzyme Activity (relative to DMSO controls)” value (panel of 391 kinases [4]) was 100.71%, the remaining activity at 1 µM (panel of 391 kinases [4]; [27]) was 101% and the “% Enzyme Activity (relative to DMSO controls)” value (panel of 391 kinases [5]) was 92.32%. The remaining activity at 1 µM (panel of 391 kinases [5]; [27]) was 94.4%, the “% Enzyme Activity (relative to DMSO controls)” value (panel of 391 kinases [6]) was 95.23% and the remaining activity at 1 µM (panel of 391 kinases [6]; [27]) was 96%. For the same compound, the “% Enzyme Activity (relative to DMSO controls)” value (panel of 391 kinases [7]) was 99.37%, the remaining activity at 1 µM (panel of 391 kinases [7]; [27]) was 99.8% and the “% Enzyme Activity (relative to DMSO controls)” value (panel of 391 kinases [8]) was 94.86%. The remaining activity at 1 µM (panel of 391 kinases [8]; [27]) was 99.6%, the “% Enzyme Activity (relative to DMSO controls)” value (panel of 391 kinases [9]) was 100.73% and the remaining activity at 1 µM (panel of 391 kinases [9]; [27]) was 103%. For the same compound, the “% Enzyme Activity (relative to DMSO controls)” value (panel of 391 kinases [10]) was 95.42%, the remaining activity at 1 µM (panel of 391 kinases [10]; [27]) was 99.5% and the “% Enzyme Activity (relative to DMSO controls)” value (panel of 391 kinases [11]) was 103.55%. For the same compound, the remaining activity at 1 µM (panel of 391 kinases [11]; [27]) was 105%, the “% Enzyme Activity (relative to DMSO controls)” value (panel of 391 kinases [12]) was 96.24% and the remaining activity at 1 µM (panel of 391 kinases [12]; [27]) was 99.8%. For the same compound, the “% Enzyme Activity (relative to DMSO controls)” value (panel of 391 kinases [13]) was 95.45%, the remaining activity at 1 µM (panel of 391 kinases [13]; [27]) was 97.6% and the “% Enzyme Activity (relative to DMSO controls)” value (panel of 391 kinases [14]; CDK5/p25) was 93.55%. For the same compound, the remaining activity at 1 µM (panel of 391 kinases [14]; CDK5/p25) was 93.6%, the “% Enzyme Activity (relative to DMSO controls)” value (panel of 391 kinases [14]; CDK5/p35) was 96.39% and the remaining activity at 1 µM (panel of 391 kinases [14]; CDK5/p35) was 96.6%. The “% Enzyme Activity (relative to DMSO controls)” value (panel of 391 kinases [15]) was 97.74%, the remaining activity at 1 µM (panel of 391 kinases [15]; [27]) was 98.5% and the “% Enzyme Activity (relative to DMSO controls)” value (panel of 391 kinases [16]) was 77.47%. For the same compound, the remaining activity at 1 µM (panel of 391 kinases [16]; [27]) was 79.2%, the “% Enzyme Activity (relative to DMSO controls)” value (panel of 391 kinases [17]) was 96.13% and the remaining activity at 1 µM (panel of 391 kinases [17]; [27]) was 96.9%. The “% Enzyme Activity (relative to DMSO controls)” value (panel of 391 kinases [18]) was 95.54%, the remaining activity at 1 µM (panel of 391 kinases [18]; [27]) was 96.8% and the “% Enzyme Activity (relative to DMSO controls)” value (panel of 391 kinases [19]) was 100.72%. For the same compound, the remaining activity at 1 µM (panel of 391 kinases [19]; [27]) was 101%, the “% Enzyme Activity (relative to DMSO controls)” value (panel of 391 kinases [20]) was 99.67% and the remaining activity at 1 µM (panel of 391 kinases [20]; [27]) was 101%. The “% Enzyme Activity (relative to DMSO controls)” value (panel of 391 kinases [21]) was 95.85%, the remaining activity at 1 µM (panel of 391 kinases [21]; [27]) was 95.9% and the “% Enzyme Activity (relative to DMSO controls)” value (panel of 391 kinases [22]) was 99.13%. The remaining activity at 1 µM (panel of 391 kinases [22]; [27]) was 102%, the “% Enzyme Activity (relative to DMSO controls)” value (panel of 391 kinases [23]) was 89.30% and the remaining activity at 1 µM (panel of 391 kinases [23]; [27]) was 90.7%. The “% Enzyme Activity (relative to DMSO controls)” value (panel of 391 kinases [24]) was 95.61%, the remaining activity at 1 µM (panel of 391 kinases [24]; [27]) was 95.6% and the “% Enzyme Activity (relative to DMSO controls)” value (panel of 391 kinases [25]) was 107.60%. The remaining activity at 1 µM (panel of 391 kinases [25]; [27]) was 109%, the “% Enzyme Activity (relative to DMSO controls)” value (panel of 391 kinases [26]) was 87.73% and the remaining activity at 1 µM (panel of 391 kinases [26]; [27]) was 88.1%.

Reference: publication PMC7181660, “A novel specific PERK activator reduces toxicity and extends survival in Huntington's disease models” (Scientific Reports, 2020)
